Values joined by “and” are separate entries in the source; they are usually repeats but may differ in a detail not shown here. Equal entries are not always repeated. Where two headings read alike, the source gives them in different places.
Experiments:
rats [1] = settings: rat, in vivo
Source text: (§1) A fourteen (14) day subacute nephrotoxicity model in rats was utilized to test the in vivo efficacy of aminoglycoside-transport inhibitor combinations. […] Though blood urea nitrogen (BUN) was monitored as a clinical parameter of renal function, the primary evaluation of nephrotoxicity in this model involves histopathologic examination of renal tissue, which is a more accurate and sensitive method for assessing nephrotoxicity [Hottendorf et al., Antimicrob.
(§2) Male Sprague-Dawley rats [Charles River Breeding Laboratories, Inc., (CRL: COBS CD (SD) BR)] approximately 6 weeks old and weighing 140-160 gms upon arrival were used. They were conditioned for at least 5 days prior to the start of the study. Only animals found to be clinically healthy were selected. Rats were identified individually by number on the tail with black marking pens. During the study the rats were housed individually in cages of the appropriate size and type in a temperature-controlled room. Rodent Laboratory Chow (pellet, Purina Ralston Company) and water was offered ad libitum.
(§3) The aminoglycoside and aminoglycoside-inhibitor mixtures were administered subcutaneously twice daily for 14 days.
(§4) All rats were euthanized by an overdose of sodium pentobarbital on study Day 15.
(§5) The kidneys were removed and examined grossly. A longitudinal section of the left kidney and a cross section of the right kidney from each rat were preserved in 10% neutral buffered Formalin for histopathological evaluation. Tissue sections (6 μm each) were stained with hematoxylin and eosin, and the resulting tissue slides were randomized, masked, and examined by a single pathologist without knowledge of the animal's treatment.
(§6) Lesions encountered in the renal cortex included tubular vacuolar or granular degeneration, peritubular inflammation, tubular necrosis, tubular dilatation, tubular basophilia, and interstitial fibrosis. The extent and distribution of each of these lesions in both kidneys of every rat were scored as follows: 0, absence of lesion; 1, lesion represented in fewer than 10% of the nephrons; 2, lesion represented in 10 to 50% of the nephrons; 3, lesion represented in 50 to 90% of the nephrons; and 4, lesion represented in more than 90% of the nephrons. Since these lesions are all interrelated and represent various stages of proximal tubular damage, the lesion scores were summed to produce a single nephrotoxicity response for each animal, with a possible severity range of 0 to 24.
(§7) Nephrotoxicity was monitored by blood urea nitrogen (BUN) analysis and histopathologic examination of renal tissue.
(§8) Aminoglycosides and aminoglycoside-inhibitor mixtures were administered subcutaneously twice daily for fourteen days.
(§9) All rats were euthanized by an overdose of sodium pentobarbital on study Day 15. The kidneys were removed, examined grossly and placed in 10% neutral buffered formalin for subsequent histopathologic evaluation.

[2] = test system: renal brush border membranes of proximal tubule cells; assay: In vitro gentamicin transport inhibition, isolated renal brush border membrane vesicles; assay type: biochemical; settings: 3H-gentamicin transport, rat renal brush border membrane vesicles, 30 second incubation; multiple of aminoglycoside molar concentration
Source text: An in vitro screening program was established to study the selective inhibition of aminoglycoside transport across renal brush border membranes of proximal tubule cells. The screening tests employed isolated, purified brush border membrane as described by Kinsella et al., Biochem. Biophys. Acta., 552: 468-477 (1979) and Williams et al., Tox. Applied Pharmacol., 61: 243-251 (1981), comprising isolation and purification of rat renal cortical membranes via differential centrifugation, cationic precipitation and discontinuous sucrose gradient techniques. […] The transport was quantified by liquid scintillation techniques as described by Kinsella et al., J. Pharmacol. Exp. Ther., 209: 443-450 (1979). Gentamicin transport was characterized, FIG. 1, as to time and concentration dependency, and as to specificity. Gentamicin transport was then measured at a fixed concentration of gentamicin (0.5 mM) in the presence of prospective inhibitors at 5X molar concentration. […] The reaction media was then vacuum filtered on 0.3 micron Millipore filters. The filters were washed twice with 2 ml of the buffer and removed and counted using liquid scintillation spectroscopy techniques. […] The inhibitors were solubilized in the above-described buffer.

rats [3] = assay: Fourteen day subacute nephrotoxicity model in rats, histopathologic examination of renal tissue; settings: for in vivo nephroprotective activity (in words): summary of Table III
Source text: as §1, §2, §3, §4, §5, §6, §7, §8, §9

[4] = multiple of AG dose: Molar 0.1 (Mg 0.7 Lysine20, 2 Asparagine90)
[5] = multiple of AG dose: Molar 0.3 (Mg 15 Lysine10, 10 Aspartic acid90, 6 Asparagine90)
[6] = multiple of AG dose: Molar 1 (Mg 15 Glutamic acid60, 20 Asparagine90)

NCC[C@H](O)C(=O)N[C@@H]1C[C@H](N)[C@@H](O[C@H]2O[C@H](CN)[C@@H](O)[C@H](O)[C@H]2O)[C@H](O)[C@H]1O[C@H]1O[C@H](CO)[C@@H](O)[C@H](N)[C@H]1O.O=S(=O)(O)O.O=S(=O)(O)O [AMIKACIN, amikacin sulfate]
nephrotoxicity in this test (conclusion in words) (rats [1]): demonstrates the nephrotoxicity of amikacin

O=S(=O)([O-])CO.[Na+] [Sodium formaldehyde bisulfite]
I50 (molar multiples producing 50% transport inhibition) [2]: 10 X | Nephroprotective Activity (rats [3]; multiple of AG dose: Molar 136, Mg 40): + (less than 50% reduction)

NCCCNCCCCNCCCN [Spermine]
I50 (molar multiples producing 50% transport inhibition) [2]: 3 X

Poly-l-asparagine90
I50 (molar multiples producing 50% transport inhibition) [2]: 0.1 X | Nephroprotective Activity (rats [3]; [4]): + (less than 50% reduction) | Nephroprotective Activity (rats [3]; multiple of AG dose: Molar 0.15, Mg 3): + (less than 50% reduction) | Nephroprotective Activity (rats [3]; [5]): + (less than 50% reduction) | Nephroprotective Activity (rats [3]; multiple of AG dose: Molar 0.5, Mg 10): +++ (reduction 100%) | Nephroprotective Activity (rats [3]; [6]): +++ (reduction 100%) | in vivo nephroprotective activity (in words) (rats [3]): greatest degree of in vivo nephroprotective activity

Poly-l-aspartic Acid90
I50 (molar multiples producing 50% transport inhibition) [2]: < 0.1 X | Nephroprotective Activity (rats [3]; [5]): +++ (reduction 100%) | in vivo nephroprotective activity (in words) (rats [3]): greatest degree of in vivo nephroprotective activity

Poly-l-glutamic Acid60
I50 (molar multiples producing 50% transport inhibition) [2]: < 0.1 X | Nephroprotective Activity (rats [3]; [6]): 0

Poly-l-lysine10
I50 (molar multiples producing 50% transport inhibition) [2]: 1 X | Nephroprotective Activity (rats [3]; [5]): 0

Tetralysine [Lysine4]
I50 (molar multiples producing 50% transport inhibition) [2]: 10 X | Nephroprotective Activity (rats [3]; multiple of AG dose: Molar 16, Mg 25): 0

gentamicin sulfate [GENTM]
Histopath. Score (TOTAL), group value below animal scores (rats [3]; Example II Group II, gentamicin 10 mg/kg sc twice daily 14 days): 4.2 | Histopath. Score (TOTAL), individual animal (rats [3]; Example II Group II, gentamicin 10 mg/kg sc twice daily 14 days, Day 15, range 0 to 24): 1 and 5 and 6 and 4 | Histopath. Score (TOTAL), group value below animal scores (rats [3]; Example II Group III, gentamicin 20 mg/kg): 4.8 | Histopath. Score (TOTAL), individual animal (rats [3]; Example II Group III, gentamicin 20 mg/kg sc twice daily 14 days): 4 and 3 and 5 and 8 | Histopath. Score (TOTAL), group value below rat scores (rats [3]; Example III Group II, gentamicin 20 mg/kg): 8.8 | Histopath. Score (TOTAL), individual rat (rats [3]; Example III Group II, gentamicin 20 mg/kg sc twice daily fourteen days): 8 and 9 and 10 | nephrotoxicity in this test (conclusion in words) (rats [3]; aminoglycoside alone groups): demonstrates the nephrotoxicity of gentamicin | dose necessary to elicit a significant and reproducible nephrotoxic response (rats [3]; bid, 14 days, rats): 20 mg/kg/day

polylysine20
I50 (molar multiples producing 50% transport inhibition) [2]: 0.05 X | Nephroprotective Activity (rats [3]; [4]): + (less than 50% reduction) | in vivo nephroprotective activity (in words) (rats [3]): showed any nephroprotective activity
